Earlier results as cited in patent US20250345512A1, “COMBINATION SODIUM-GLUCOSE COTRANSPORTER INHIBITOR (SGLTI) INSULIN THERAPY FOR GLYCEMIC CONTROL IN TYPE 1 DIABETES” (University of Virginia Patent Foundation, priority 2022, published 2025).

Assays:
T1D = settings: versus placebo over 18 weeks; cited from earlier work
T1D patients [1] = test system: T1D patients; design: adverse effects, including DKA: reference not given here; settings: cited from earlier work
[2] = 25 mg/day added to experimental AID; 9-14 h outpatient; cited from earlier work
T1D adults = settings: pooled analysis of 1575 T1D adults; cited from earlier work
T1D patients [3] = settings: 200 mg and 400 mg; adults with T1D; cited from earlier work

Cc1ccc([C@@H]2O[C@H](CO)[C@@H](O)[C@H](O)[C@H]2O)cc1Cc1ccc(-c2ccc(F)cc2)s1 [canagliflozin]
indices of glycemic variability and treatment satisfaction (T1D): improved indices of glycemic variability and improvement in treatment satisfaction

OC[C@H]1O[C@@H](c2ccc(Cl)c(Cc3ccc(O[C@H]4CCOC4)cc3)c2)[C@H](O)[C@@H](O)[C@@H]1O [empagliflozin]
adverse effects (T1D patients [1]; 2.5 mg): indistinguishable from placebo
adverse effects, including DKA (T1D patients [1]; 10 mg and 25 mg daily dose): two to three fold higher
body weight, systolic blood pressure, and diastolic blood pressure (T1D patients [1]; 1707 T1D patients, 26 weeks of SGLT2i treatment): significant reductions
hemoglobin A1c and hypoglycemia (T1D patients [1]; EASE trials): improvements in hemoglobin Ale without increase in hypoglycemia
need for pre-meal carbohydrate counting [2]: reduce the need for pre-meal carbohydrate counting

CCOc1ccc(Cc2cc([C@@H]3O[C@H](SC)[C@@H](O)[C@H](O)[C@H]3O)ccc2Cl)cc1 [sotagliflozin]
short- and long-term renal hemodynamic changes (T1D adults): reductions in urine albumin:creatinine
glycemic control and weight (T1D patients [3]): improved glycemic control and weight
